Reference: publication PMC10893053 (Pharmaceutics, 2024)
In brackets after ≈: the same amount, converted by molar mass. Several values for one entry are separate records, joined by “and”; a condition that tells them apart may be missing. Identical values can stand only once. Like-named read-outs stand apart in the source and are kept apart here.

Experiments:
[1] = In vitro permeability, Franz diffusion cell, polydimethylsiloxane–polycarbonate membrane; format: in vitro ADME; settings: 37 °C; for C0free (free CBZ concentration in the donor solution, C0free=C0·ffree): PDS membrane experiment; for Papp at 5 h: pH 6.8, PDS membrane
Experimental: (§1) The apparent permeability coefficients were measured at 37 °C with the help of a vertical-type Franz diffusion cell (PermeGear, Inc., Hellertown, PA, USA). The experimental setup was the same as it was described in our previous study, where the excess amount of the investigated substance was placed in glass cups with ground-in lids. The required volume of buffer pH 6.8 without and with a predetermined concentration of the excipient (F127 or SBE-β-CD in the present study) was added, and the suspension was mixed overnight and filtered to obtain a clear solution. The concentration of this solution was determined and used for the further calculation of the permeability coefficient. […] The membrane was mounted between the donor and receptor chambers of the Franz cell. The effective surface area of the membrane was 0.785 cm^2. Each experiment lasted 5 h. The donor solution was permanently mixing with a magnetic stirrer at a constant rate. The aliquots of the receptor solution (0.5 mL) were withdrawn every 30 min and promptly replaced with the same volume of the fresh buffer.
(§2) The apparent permeability coefficients were taken as the average values of no less than three replicas. […]
(§3) The authors underlined that when different excipients, such as cyclodextrins or micelle-forming polymers, are used, it is necessary to obtain “true” permeability values by a correction of permeability coefficients for the free drug concentration. In this study, the free drug concentration in the presence of F127 and SBE-β-CD was assessed indirectly through the equilibrium solubility experiments at all the excipient concentrations (Table 2).

[2] = set-up: method as in PMID 19403275; settings: 1.33 mmol·L^−1 (1%) F127 solution; 37 °C; cited from earlier work
[3] = Cyclodextrin (SBE-β-CD)/buffer apparent partition coefficient of CBZ; format: physicochemical; settings: buffer pH 6.8, 37 °C
Experimental: (§4) Additionally, for the sake of the reliable comparison of the partition within the micellar and cyclodextrin systems, the concentrations of the excipient (F127 or SBE-β-CD) on the X-axis were expressed in kg∙L^−1. From the results of the partition coefficients determinations, the thermodynamics of solubilization by F127 and SBE-β-CD was disclosed by the excess free Gibbs energy ( ΔGS37°C ) evaluation, using the equation:(12) ΔGS37°C=−RT·lnKexcipient/buf
(§5) In the case of cyclodextrins, the nonspecific interaction between the solute and the cavity of cyclodextrin takes place, and the solubilization process may be attributed to the partition of solutes from the aqueous buffer into the cyclodextrin cavity. In this work, the partition from the micellar pseudo phase (F127) to the aqueous buffer pH 6.8, as well as from SBE-β-CD to the buffer was studied using the plots of the linear dependences (Figure S4), plotted according to Equations (10) and (11). The calculations were conducted in two variants.

[4] = CBZ/F127 association constant (Ka) from phase solubility diagram; format: physicochemical; settings: buffer pH 6.8, 37 °C
Text: To this end, in order to assess the concentration of F127 in the micellar form, the difference between the total F127 (CF127) concentration and the CMC was used.
The CMC value of F127 (Section 3.1) was used to calculate F127 micellar concentrations as the differences between the total CF127 and the CMC.

[5] = logP, partition of CBZ from water to 1-octanol; format: physicochemical; settings: 1-octanol/water, pH 7.4; after conversion from the molar units to the mass units
[6] = cited from earlier work
[7] = In vitro permeability, Franz diffusion cell, regenerated cellulose membrane; format: in vitro ADME; settings: 37 °C; for C0free (free CBZ concentration in the donor solution, C0free=C0·ffree): RC membrane experiment; for Papp at 5 h: pH 6.8, RC membrane
Experimental: as §1, §2, §3

[8] = Micelle (F127)/buffer apparent partition coefficient of CBZ; format: physicochemical; settings: buffer pH 6.8, 37 °C
Experimental: as §4, §5

[9] = set-up: method as in PMID 21415539; settings: water to 1-octanol; pH 7.4 of the aqueous phase; cited from earlier work
[10] = Equilibrium solubility of CBZ, shake-flask method, HPLC; format: physicochemical; settings: phosphate buffer, aqueous buffer, thermodynamic from solid; pure buffer pH 6.8; 37.0±0.1 °C
Experimental: The experimental temperature of 37 °C corresponded to the standard temperature of a healthy human. […] The vials were continuously shaken in an air thermostat to achieve the equilibrium. After this, the suspensions were settled during no less than 6 h to avoid supersaturation [33]. […] The experimental results are presented as an average of at least three replicated experiments.
The samples of the solutions were analyzed via HPLC using the Shimadzu Prominence model LC-20 AD, equipped with a PDA detector and a C-18 column Luna® (150 mm × 4.6 mm i.d., 5 μm particle size, and 100 Å pore size) (Albert-Hahn-Str. 6-10, Duisburg, Germany). The column temperature was 40 °C. Eluent acetonitrile:water at a ratio of 40:60 v/v was used. An isocratic regime at a flow rate of 1 mL·min^−1 was applied. The injection volume was 20 μL.

[11] = Stability constant of CBZ/SBE-β-CD complex (Kc) from phase solubility diagram; format: physicochemical; settings: buffer pH 6.8, 37 °C
[12] = Viscosity of F127 and SBE-β-CD solutions, Vibro Viscometer; format: physicochemical; settings: 37 °C
Experimental: The viscosity of F127 and SBE-β-CD solutions at concentrations used for the permeability experiments (1.0 w/v%, 2.0 w/v%, and 3.0 w/v%) was measured with the help of SV series Vibro Viscometer (A&D Company Ltd., Tokyo, Japan) with a high accuracy of 1% (standard deviation).
In turn, with SBE-β-CD in the donor solution, the Pappcalc values are somewhat lower with RC and higher with PDS membranes than the experimental Papp values. These findings allow the proposal of additional mechanisms that influence permeability, going beyond the model approach which primarily relied on solubility for quantitatively predicting permeability. The underestimation of the permeability through the PDS membrane with SBE-β-CD can probably be attributed to the specific interaction of anionic cyclodextrin with PDS, as it was underlined above. In addition, as it was reported in [57], decreased diffusivity can be attributed to the increased viscosity of the donor solution upon the acceleration of the excipient concentration. […] Fischer et al. proposed that just a change in the viscosity of the aqueous donor compartment might be the reason of the decreased permeability of carboxyfluorescein in the non-ionic surfactant poloxamer 188. To support the obtained results, the dynamic viscosity […] of the dissolution medium was measured at the experimental temperature of 37 °C and listed in Table S4. As expected, the viscosity was increased both with F127 and SBE-β-CD in solution.

[13] = F127 1.33 mmol·L^−1, buffer pH 6.8, read-out: Papp (apparent permeability coefficient)
[14] = F127 1.83 mmol·L^−1, buffer pH 6.8, read-out: Papp (apparent permeability coefficient)
[15] = F127 2.30 mmol·L^−1, buffer pH 6.8, read-out: Papp (apparent permeability coefficient)
[16] = SBE-β-CD 6.89 mmol·L^−1, buffer pH 6.8, read-out: Papp (apparent permeability coefficient)
[17] = SBE-β-CD 13.78 mmol·L^−1, buffer pH 6.8, read-out: Papp (apparent permeability coefficient)
[18] = SBE-β-CD 20.67 mmol·L^−1, buffer pH 6.8, read-out: Papp (apparent permeability coefficient)
[19] = pure buffer pH 6.8 (0 mmol·L^−1 excipient), read-out: Pabs (absolute permeability coefficient, Pabs=J/C0free)
[20] = pure buffer pH 6.8 (0 mmol·L^−1 excipient), read-out: Papp (apparent permeability coefficient)
[21] = excipient concentration expressed in kg∙L^−1
[22] = excipient concentration expressed in molarity
[23] = expressed per mass of excipient

Compound: NC(=O)N1c2ccccc2C=Cc2ccccc21 [CBZ, carbamazepine]
- C0free (free CBZ concentration in the donor solution, C0free=C0·ffree) ([1]; F127 1.33 mmol·L^−1): 464 µM
- C0free (free CBZ concentration in the donor solution, C0free=C0·ffree) ([1]; F127 1.83 mmol·L^−1): 378 µM
- C0free (free CBZ concentration in the donor solution, C0free=C0·ffree) ([1]; F127 2.30 mmol·L^−1): 312 µM
- C0free (free CBZ concentration in the donor solution, C0free=C0·ffree) ([1]; SBE-β-CD 6.89 mmol·L^−1): 440 µM
- C0free (free CBZ concentration in the donor solution, C0free=C0·ffree) ([1]; SBE-β-CD 13.78 mmol·L^−1): 514 µM
- C0free (free CBZ concentration in the donor solution, C0free=C0·ffree) ([1]; SBE-β-CD 20.67 mmol·L^−1): 500 µM
- Papp at 5 h [1, 13]: 0.286 ×10⁻⁶ cm/s
- Papp at 5 h [1, 14]: 0.253 ×10⁻⁶ cm/s
- Papp at 5 h [1, 15]: 0.214 ×10⁻⁶ cm/s
- Papp at 5 h [1, 16]: 0.127 ×10⁻⁶ cm/s
- Papp at 5 h [1, 17]: 0.0796 ×10⁻⁶ cm/s
- Papp at 5 h [1, 18]: 0.0565 ×10⁻⁶ cm/s
- Papp at 5 h [1, 19]: 0.567 ×10⁻⁶ cm/s
- Papp at 5 h [1, 20]: 0.567 ×10⁻⁶ cm/s
- Solubility of CBZ [2]: 1430 µM
- Partition coefficient KSBE-β-CD/buf [3, 21]: 205.11 (±0.51)
- Partition coefficient KSBE-β-CD/buf [3, 22]: 297.67 (±0.75)
- CBZ/F127 micellar association constant (Ka) [4]: 2374.2 (±118.7) M^−1
- CBZ/F127 micellar association constant (Ka) [4, 23]: 65.5 (±3.27) L∙kg^−1
- logP [5]: 3.47
- Stability constant of CBZ with SBE-β-CD ([6]; unbuffered double distilled water, 30 °C, ref 48 Jain et al.): 498.04 M⁻¹
- Stability constant of CBZ with SBE-β-CD ([6]; undefined pH and temperature, ref 49 Smith et al.): 1035 M⁻¹
- C0free (free CBZ concentration in the donor solution, C0free=C0·ffree) ([7]; F127 1.33 mmol·L^−1): 473 µM
- C0free (free CBZ concentration in the donor solution, C0free=C0·ffree) ([7]; F127 1.83 mmol·L^−1): 377 µM
- C0free (free CBZ concentration in the donor solution, C0free=C0·ffree) ([7]; F127 2.30 mmol·L^−1): 473 µM
- C0free (free CBZ concentration in the donor solution, C0free=C0·ffree) ([7]; SBE-β-CD 6.89 mmol·L^−1): 446 µM
- C0free (free CBZ concentration in the donor solution, C0free=C0·ffree) ([7]; SBE-β-CD 13.78 mmol·L^−1): 388 µM
- C0free (free CBZ concentration in the donor solution, C0free=C0·ffree) ([7]; SBE-β-CD 20.67 mmol·L^−1): 559 µM
- Papp at 5 h [7, 13]: 32.2 ×10⁻⁶ cm/s
- Papp at 5 h [7, 14]: 26.6 ×10⁻⁶ cm/s
- Papp at 5 h [7, 15]: 20.3 ×10⁻⁶ cm/s
- Papp at 5 h [7, 16]: 20.5 ×10⁻⁶ cm/s
- Papp at 5 h [7, 17]: 13.4 ×10⁻⁶ cm/s
- Papp at 5 h [7, 18]: 12.4 ×10⁻⁶ cm/s
- Papp at 5 h [7, 19]: 55.5 ×10⁻⁶ cm/s
- Papp at 5 h [7, 20]: 55.5 ×10⁻⁶ cm/s
- Partition coefficient KF127/buf [8, 21]: 58.54 (±0.86)
- Partition coefficient KF127/buf [8, 22]: 737.63 (±10.90)
- P (partition coefficient water/1-octanol) [9]: 380.19
- solubility thermodynamic [10]: 830 µM (≈ 196 µg/mL)
- Apparent stability constant of CBZ/SBE-β-CD complex (Kc) [11]: 395.9 (±15.8) M^−1 and 395.9 M^−1
- Apparent stability constant of CBZ/SBE-β-CD complex (Kc) [11, 23]: 247.5 (±5.23) L∙kg^−1

Compound: sulfobutylether-β-cyclodextrin [SBE-β-CD]
- Viscosity ([12]; SBE-β-CD 6.89 mmol·L-1 donor solution): 0.72 mPa·s
- Viscosity ([12]; SBE-β-CD 13.78 mmol·L-1 donor solution): 0.75 mPa·s
- Viscosity ([12]; SBE-β-CD 20.67 mmol·L-1 donor solution): 0.8 mPa·s
